Species: Homo sapiens
Assay: Concentration required to inhibit collagen-induced platelet aggregation in human platelet rich plasma (PRP)
Assay type: functional

Compound	IC50
CC(C)(/C=C/C(O)c1ccc(C(=N)N)cc1)C(=O)N1CCC(CC(=O)O)CC1 (configuration not stated)	7600 nM
C#CCOC(/C=C/c1ccc(C(=N)N)cc1)C(C)(C)C(=O)N1CCC(CC(=O)O)CC1 (configuration not stated)	270 nM
COC(/C=C/c1ccc(C(=N)N)cc1)C(C)(C)C(=O)N1CCC(CC(=O)O)CC1 (configuration not stated)	250 nM
CC(C)(C(=O)/C=C/c1ccc(C(=N)N)cc1)C(=O)N1CCC(CC(=O)O)CC1	3500 nM
CC(C)(/C=C/C(=O)c1ccc(C(=N)N)cc1)C(=O)N1CCC(CC(=O)O)CC1	210 nM
CC(C)(CCC(=O)c1ccc(C(=N)N)cc1)C(=O)N1CCC(CC(=O)O)CC1	630 nM
CCCCCCOC(/C=C/c1ccc(C(=N)N)cc1)C(C)(C)C(=O)N1CCC(CC(=O)O)CC1 (configuration not stated)	1600 nM
CC(C)(C(=O)N1CCC(CC(=O)O)CC1)/C(O)=C/C(=O)c1ccc(C(=N)N)cc1	600000 nM
CCOC(/C=C/c1ccc(C(=N)N)cc1)C(C)(C)C(=O)N1CCC(CC(=O)O)CC1 (configuration not stated)	260 nM
COC(CCc1ccc(C(=N)N)cc1)C(C)(C)C(=O)N1CCC(CC(=O)O)CC1 (configuration not stated)	480 nM
CC(C)(C(=O)N1CCC(CC(=O)O)CC1)C(/C=C/c1ccc(C(=N)N)cc1)OCc1ccccc1 (configuration not stated)	730 nM
CC(C)(C(=O)N1CCC(CC(=O)O)CC1)C(O)/C=C/c1ccc(C(=N)N)cc1 (configuration not stated)	600 nM

Source: ChEMBL document CHEMBL1151587, “Development of new non-peptide GPIIb/IIIa antagonists, NSL-95315 and NSL-95317, isosteres of NSL-95300” (Bioorg Med Chem Lett, 1997)
